Test results: US20120196793A1, “BIOMARKERS FOR IAP INHIBITOR COMPOUNDS” (priority 2009, published 2012)

What was measured:
TNFα [1] = assay: TNFα ELISA in SK-OV-3 cells with shRNA knockdown of NFkB pathway nodes; assay type: cell-based, Human
Procedure: To elucidate this mechanism, nodes of the canonical and non-canonical NFkB pathways and are knocked down and induction of TNFα expression, a marker of NFkB activation, after treatment with the Smac mimetic compound Compound A, is assessed. […] Therefore, tumors with active or functional canonical NFkB signaling, as evidenced by TNFα expression or other markers of active NFkB signaling, are more likely to respond to Compound A.
On day one, SKOV cancer cells are plated into two 96-well, clear, flat bottom plates. All wells in row A contain 200 uL of media. All wells in rows B-G contain 5000 cells per well in 180 ul of RPMI media with 10% FBS and 1 ug/mL of puromycin. Plates are then incubated overnight for 18 hours at 37 C, 5% CO2. […] TNFα levels in the media are measured using the R&D Quantikine Human TNFalpha High Sensitivity ELISA assay, catalog number HSTA00D. […] The colorimetric readout is measured on a spectrometer at 490 nM within 30 minutes of adding the stop solution. Raw data is normalized to account for background noise, duplicate values are averaged and concentrations are calculated from a standard curve (FIG. 9). […] CTG measures the amount of ATP released from viable cells that can be measured by a luminescent plate reader. Cells with CTG are incubated for ten minutes at room temperature and read on a luminescent plate reader. […]

TNFα [2] = assay: TNFα ELISA of tumor lysates from orthotopic MDA-MB-231 xenografts after a single oral dose; assay type: in vivo, mice; conditions: 39 days after tumor cell implantation, mean tumor volume approximately 141 mm3
Procedure: To assess whether the induction of TNFα observed in the MDA-MB-231 breast tumor cell line translated to an in vivo setting, an experiment is performed in mice harboring orthotopically implanted MBA-MD-231 tumors.
A single oral dose of Compound A is administered 39 days following tumor cell implantation when mean tumor volumes reached approximately 141 mm3. Tumors are harvested from each animal, lysed, and analyzed by ELISA to determine TNFα concentrations.

TNFα [3] = assay: Secreted TNFα ELISA in a panel of cancer cell lines before and 24 hours after compound addition; assay type: cell-based, Human; conditions: sensitive vs insensitive cancer cell lines (3-day viability assays, up to 10 uM)
Procedure: To test whether the engagement of the TNFα signaling pathway is requisite for single agent activity in vitro, a panel of cancer cell lines is evaluated for sensitivity to Compound A while in parallel, secreted TNFα expression levels are assessed by ELISA before and 24 hours after compound addition. […] Increased basal TNFα levels also positively correlate with sensitivity to Compound A (FIG. 8).
On day one, cancer cells are plated into two 96-well, clear, flat bottom plates. All wells in row A contain 200 uL of media. All wells in rows B-G contain 5000 cells per well in 180 ul of RPMI media with 10% FBS. Plates are then incubated overnight for 18 hours at 37 C, 5% CO2. […] TNFα levels in the media are measured using the R&D Quantikine Human TNFα High Sensitivity ELISA assay, catalog number HSTA00D. […] The colorimetric readout is measured on a spectrometer at 490nM within 30 minutes of adding the stop solution. Raw data is normalized to account for background noise, duplicate values are averaged and concentrations are calculated from a standard curve (FIG. 8). […] CTG measures the amount of ATP released from viable cells that can be measured by a luminescent plate reader. Cells with CTG are incubated for ten minutes at room temperature and read on a luminescent plate reader. Raw data is normalized to account for background noise, duplicate values are averaged and percent control growth is calculated.

[4] = test system: MDA-MB-231 breast cancer cell line; assay: In vitro induction of TNFα, caspase activation and cell death in tumor cell lines; assay type: cell-based; conditions: in vitro assays, variety of tumor cell lines including MDA-MB-231
[5] = test system: patient-derived tumor models representing both triple negative breast cancer and Non Small Cell Lung Carcinoma (NSCLC); assay: Single agent tumor growth inhibition (% T/C) in patient-derived xenograft models; assay type: in vivo, nude mice; conditions: 18 patient-derived tumor models
Description: Patient-derived xenograft models in which human tumors are surgically resected then directly implanted and subsequently passaged in nude mice are potentially more clinically relevant than cell line models since there is no selective pressure for two dimensional growth on a plastic stratum.
Compound A has been tested for single agent activity in 18 patient-derived tumor models representing both triple negative breast cancer and Non Small Cell Lung Carcinoma (NSCLC) models. Tumor growth inhibition by Compound A is reported as % T/C (percent growth of tumors in mice treated with Compound A relative to the growth of tumors in Control vehicle treated mice). Complete regression of a tumor would be reported as −100% T/C, tumor stasis (no growth) would be reported as 0% T/C, and no effect would be reported as 100% T/C. […] Stasis (T/C≦40%) has been observed in 25% of primary models assessed.

How did the “Compound A-mediated induction of TNFα after knockdown of RelB” value (TNFα [1]; SK-OV-3, shRNA-mediated knockdown of RelB (non-canonical NFkB pathway)) turn out when CN[C@@H](C)C(=O)N[C@H](C(=O)N1CCC[C@H]1c1nc(C(=O)c2ccc(F)cc2)cs1)C1CCCCC1 [Compound A, (S)—N—((S)-1-Cyclohexyl-2-{(S)-2-[4-(4-fluoro-benzoyl)-thiazol-2-yl]-pyrrolidin-1-yl}-2-oxo-ethyl)-2-methylamino-propionamide] was run?
The value was “does not impact”.

What about the “Compound A-mediated TNF induction after knockdown of RelA” value (TNFα [1]; SK-OV-3 ovarian carcinoma cell line, shRNA-mediated knockdown of RelA (canonical NFkB pathway)) of the same compound?
Its value is “ablated TNF induction”.

And the “increase in TNFα in MDA-MB-231 tumor lysates” value (TNFα [2])?
The value was roughly 10 fold.

What about the “induction of secreted TNFα” value (TNFα [3]) of the same compound?
Its value is “induced TNF-alpha in sensitive but not insensitive cancer cell lines”.

What about the “induction of TNFα, activation of caspases and subsequent cell death” value [4] of the same compound?
The value was “induces the induction of TNFα, activation of caspases and subsequent cell death”.

And the “range of responses (% T/C)” value [5]?
The value was “from tumor regression to no effect”.

What about the “share of primary models in which stasis (T/C≦40%) was observed” value [5] of the same compound?
The value was 25%.
